In patent publication US20090041719A1, “Method for screening therapeutic agent for glomerular disorder” (priority 2006, published 2009):
Values joined by “and” are separate entries in the source; they are usually repeats but may differ in a detail not shown here. Identical values can stand only once.

Columns and labels:
[1] = system: rat unilateral ureteral obstruction release model; assay: Rat unilateral ureteral obstruction release model: glomerular and tubulointerstitial lesions, Asc-1+ cells; type: in vivo, SD rat; conditions: for Improvement of glomerular lesion: Yes = lesioned glomeruli per 50 glomeruli reduced to less than or equal to half the control average; for Improvement of tubulointerstitial lesion: Yes = reduced to less than or equal to half the control average;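 on Tubulointerstitial lesion: atrophy of tubules associated with dilatation of tubules (score): ± very light + light ++ moderate +++ high change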;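 on Tubulointerstitial lesion: fibrosis of interstitial tissue (score): ± very light + light ++ moderate +++ high change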;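 on Tubulointerstitial lesion: thickness of basement membrane (score): ± very light + light ++ moderate +++ high change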
Excerpt: An experimental model was produced in accordance with the method devised and established by Ishibashi (Michio Ishibasi et al., Japanese Journal of Nephrology 42: 248, 2000), using a 8 to 9-week-old male SD rat weighing about 280 g. […] On day 14 after obstruction, the obstruction was released, and the urinary tract was reconstructed using a cuff. That is, 14 days later, the ligated ureteral obstruction part was partially removed, and a 25 gauge polyethylene tube (made by Nippon Sherwood) as a cuff was inserted from the lower normal ureteral stump and placed in the lumen. Next, the cuff was placed also in the expanded upper ureter, and both parts were ligated for fixation with a 7-0 nylon suture to reconstruct the urinary tract. At the same time, the right kidney was removed. The weight was measured after obstruction release, and the blood was collected on days 2, 5, and 7 after release for serum creatinine determination. On day 7, the rat was sacrificed under anesthesia and the left obstruction release kidney was removed. The weight of the removed kidney was measured, and the kidney pathomorphological examination was performed.
The biological effects of the test compound were studied in vivo using the model obtained in the above procedure 1). The test compound in the form of bulk powder was dissolved in sterilized physiologic saline together with gum arabic, where the concentration of the gum arabic was adjusted to 5% and the concentration of the test compound was adjusted to 30 mg/ml. The amount of 30 mg/kg was subcutaneously administered every day. Daily administration was continued for 21 days during 14 days of obstruction and 7 days after obstruction release. For controlled comparison, the solvent of 5% gum arabic was administered alone.
On day 22 from the administration of the test compound, the rat was sacrificed under anesthesia, and the left obstruction release kidney was removed and neutral formalin fixed. The fixed renal tissue embedded in paraffin was sliced into 4-micrometer-thick pieces for examination.
The tissue section was observed under a microscope in order to count the number of glomeruli and the number of glomeruli having a lesion (expansion of a tubular pole associated with swollen Bowman's capsule epithelial cells or hypertrophy of a Bowman's capsule basal membrane) in the field of view, and the number of glomeruli having the lesion (referred to as “lesioned glomerulus”) per 50 glomeruli was calculated.
As for the effectiveness to improve of glomerular lesions, when the number of lesioned glomeruli per 50 glomeruli was reduced to less than or equal to half the average number of those of the control group, it was determined as improved.
An affinity-purified anti-rat Asc-1 polyclonal antibody (rabbit) was prepared as follows: that is, in order to prepare an anti-Asc-1 peptide polyclonal antibody (rabbit), an oligopeptide (PSPLPITDKPLKTQC (SEQ. ID NO: 4)) corresponding to amino acid residues of 517-530 of Asc-1 was synthesized (see J Biol Chem (2000); 275: 9690-9698), keyhole limpet hemocyanine was bound to the C-terminal cysteine as an adjuvant, and […] was immunized therewith. The serum was collected on days 7 and 14 from the immunization. The serum was concentrated by means of an adsorption-dissociation operation using an affinity column to which an oligopeptide corresponding to amino acid residues of 517-530 of Asc-1 was bound in order to obtain an affinity-purified antibody having a protein content of 0.5 mg/ml. As for immunopathological examination, paraffin rat […] diluted with PBS to the optimal concentration was used.
The immune tissue staining was performed based on the protocol of Ventana HX system bench mark (Ventana Japan K.K., Tokyo) including the automated immunostaining device manufactured by Ventana Japan K.K. After deparaffinization, the tissue section was heat-treated at 100° C. for 1 hour. […]

[2] = system: glomerular lesions; renal tubulointerstitial lesions; conditions: International Publication WO 2004/024185 and 01/72730 pamphlets; cited from earlier work
rBAT = assay: HAT heavy chain rBAT on large-monocyte fraction of LPS-stimulated human PBMC, peak value by FACScan; type: cell-based; conditions: human PBMC + LPS 80 μg/ml, 6-day culture; test compound 100 nM; solvent control 37
Method: (§1) In the same manner as in 1) to 5) of Experimental Example 1, to human peripheral blood mononuclear cells, the test compound (6-2) (final concentration: 10 nM) or the test compound (7-3) (final concentration: 100 nM) was added at the same time when LPS (final concentration: 80 μg/ml) was added, followed by 6-day culture. Further, in the same manner as above, using rabbit anti-human 4F2hc polyclonal antibodies (see Biol Pharm Bull 30:415-422, 2007) as a primary antibody, the peak value of HAT expressed on the fraction of large-macrophages (larger than monocyte macrophages) in human PBMC was measured by FACScan using a commercially available cell fix/cell membrane infiltration kit (trade name: BD Cytofix/Cytoperm™ Kit, catalog No. 554714, BD Biosciences).
(§2) As a control, the one with no test-compound addition was used, and as a rabbit anti-human rBAT (related to b^0,+-type amino acid transporter) polyclonal antibody, the one obtained by coupling a synthesized peptide composed of an amino-terminal of human rBAT (MAEDKSKRDSIEMSMKGC (SEQ ID NO: 2)) and a carboxyl-terminal of mouse b^0,+AT (BAT1) (CHLQMLEWPEKDPE (SEQ ID NO: 3)) to a carrier KLH (keyhole-limpet hemocyanin), and immunizing a rabbit with it.

FRP-1/CD98/4F2hc = assay: FACScan of FRP-1/CD98/4F2hc expression on macrophage fraction of LPS-stimulated human PBMC (monoclonal antibodies 4-5-1, 6-1-3, HBJ-127); type: cell-based
4F2hc [3] = assay: 4F2hc on large-cell fraction of LPS-stimulated THP-1, peak value by FACScan; type: cell-based, human
Method: The same procedures as in Experimental Example 2 were taken except the following conditions: human leukemia culture cell line THP-1 was used instead of the human peripheral blood mononuclear cells; the final addition concentration of the test compound (6-2) was set to 100 nM, and the final addition concentration of the test compound (7-3) was set to 1000 nM; and fetal bovine serum was used instead of the human AB serum. The peak value of HAT expressed on the fraction of large-cells in human leukemia culture cell strain THP-1, compared with those not stimulated with LPS, was measured. As a control, the one with no test-compound addition was used, and the peak value of HAT was measured by FACScan using a commercially available cell fix/cell membrane infiltration kit (trade name: BD Cytofix/Cytopem™ Kit, catalog No. 554714, BD Bioscience).

4F2hc [4] = assay: HAT heavy chain 4F2hc on large-monocyte fraction of LPS-stimulated human PBMC, peak value by FACScan (polyclonal antibody); type: cell-based
Method: as §1, §2

[5] = group average ± standard deviation
[6] = individual animal, 30 mg/kg s.c. daily for 21 days, 30 mg/kg
[7] = individual animal, points: ± 0.5, + 1, ++ 2, +++ 3
[8] = individual animal, sum of the three scores
[9] = human PBMC + LPS 80 μg/ml, 6-day culture, test compound 100 nM

Structure (SMILES): C[C@@H](OC[C@]1(Oc2ccc(F)cc2)CCC(=O)O1)c1ccc2ccccc2c1 [(4-2)]
- Glomerular lesion: number of lesioned glomeruli per 50 glomeruli, expansion of tubular pole associated with swollen Bowman's capsule epithelial cells [1, 5]: 11 ± 6 per 50 glomeruli
- Glomerular lesion: number of lesioned glomeruli per 50 glomeruli, hypertrophy of Bowman's capsule basal membrane [1, 5]: 18 ± 9 per 50 glomeruli
- Number of Asc-1+ cells per 50 glomeruli [1, 5]: 4.03 ± 3.06 per 50 glomeruli
- Tubulointerstitial lesion: atrophy of tubules associated with dilatation of tubules (score) [1, 5]: 1.0 ± 0
- Tubulointerstitial lesion: fibrosis of interstitial tissue (score) [1, 5]: 1.5 ± 0.6
- Tubulointerstitial lesion: thickness of basement membrane (score) [1, 5]: 0.9 ± 0.3
- Tubulointerstitial lesion: total score [1, 5]: 3.4 ± 0.5
- Glomerular lesion: number of lesioned glomeruli per 50 glomeruli, expansion of tubular pole associated with swollen Bowman's capsule epithelial cells [1, 6]: 16 per 50 glomeruli (2×) and 6 per 50 glomeruli and 7 per 50 glomeruli
- Glomerular lesion: number of lesioned glomeruli per 50 glomeruli, hypertrophy of Bowman's capsule basal membrane [1, 6]: 29 per 50 glomeruli and 9 per 50 glomeruli and 20 per 50 glomeruli and 13 per 50 glomeruli
- Number of Asc-1+ cells per 50 glomeruli [1, 6]: 1.81 per 50 glomeruli and 7.39 per 50 glomeruli and 5.83 per 50 glomeruli and 1.10 per 50 glomeruli
- Improvement of glomerular lesion ([1]; individual animal): No (2×) and Yes (2×)
- Improvement of tubulointerstitial lesion ([1]; individual animal): No and Yes (3×)
- Tubulointerstitial lesion: atrophy of tubules associated with dilatation of tubules (score) [1, 7]: 1
- Tubulointerstitial lesion: fibrosis of interstitial tissue (score) [1, 7]: 2 (2×) and 1 (2×)
- Tubulointerstitial lesion: thickness of basement membrane (score) [1, 7]: 1 (3×) and 0.5
- Tubulointerstitial lesion: total score [1, 8]: 4.0 and 3.5 and 3.0 (2×)
- known action on renal tubulointerstitial lesions [2]: selectively inhibit the renal tubulointerstitial lesions

Structure (SMILES): O=C1OC(Cl)(C(=O)OCc2ccccc2)c2ccccc21 (stereo not shown) [Compound (7-3)]
- Change in HAT expressed on large-monocyte fraction of human PBMC (peak value by FACScan), rBAT (rBAT): 38
- Migration of FRP-1/CD98/4F2hc expression of macrophage fraction by FACScan (migration rate %), monoclonal antibody 4-5-1 (FRP-1) (FRP-1/CD98/4F2hc; [9]): 2.6%
- Migration of FRP-1/CD98/4F2hc expression of macrophage fraction by FACScan (migration rate %), monoclonal antibody 6-1-3 (FRP-1) (FRP-1/CD98/4F2hc; [9]): 2.0%
- Migration of FRP-1/CD98/4F2hc expression of macrophage fraction by FACScan (migration rate %), monoclonal antibody HBJ-127 (CD98) (FRP-1/CD98/4F2hc; [9]): 5.4%
- expression of FRP-1/CD98/4F2hc on macrophage fraction of human PBMC (in words) (FRP-1/CD98/4F2hc; stimulated and cultured with LPS, summary of Table 1): did not increase the expression
- amelioration / reduction of tubulointerstitial lesions, rats of the group ([1]; control group: one rat out of four): all of four rats
- Glomerular lesion: number of lesioned glomeruli per 50 glomeruli, expansion of tubular pole associated with swollen Bowman's capsule epithelial cells [1, 5]: 5 ± 3 per 50 glomeruli
- Glomerular lesion: number of lesioned glomeruli per 50 glomeruli, hypertrophy of Bowman's capsule basal membrane [1, 5]: 14 ± 5 per 50 glomeruli
- Number of Asc-1+ cells per 50 glomeruli [1, 5]: 0.90 ± 0.47 per 50 glomeruli
- Tubulointerstitial lesion: atrophy of tubules associated with dilatation of tubules (score) [1, 5]: 0.50 ± 0.4
- Tubulointerstitial lesion: fibrosis of interstitial tissue (score) [1, 5]: 0.5 ± 0
- Tubulointerstitial lesion: thickness of basement membrane (score) [1, 5]: 0.4 ± 0.3
- Tubulointerstitial lesion: total score [1, 5]: 1.4 ± 0.6
- Glomerular lesion: number of lesioned glomeruli per 50 glomeruli, expansion of tubular pole associated with swollen Bowman's capsule epithelial cells [1, 6]: 9 per 50 glomeruli and 1 per 50 glomeruli and 6 per 50 glomeruli and 4 per 50 glomeruli
- Glomerular lesion: number of lesioned glomeruli per 50 glomeruli, hypertrophy of Bowman's capsule basal membrane [1, 6]: 20 per 50 glomeruli and 10 per 50 glomeruli and 16 per 50 glomeruli and 11 per 50 glomeruli
- Number of Asc-1+ cells per 50 glomeruli [1, 6]: 1.35 per 50 glomeruli and 0.47 per 50 glomeruli and 1.27 per 50 glomeruli and 0.53 per 50 glomeruli
- Improvement of glomerular lesion ([1]; individual animal): No (2×) and Yes (2×)
- Tubulointerstitial lesion: atrophy of tubules associated with dilatation of tubules (score) [1, 7]: 0.5 (2×) and 0 and 1
- Tubulointerstitial lesion: fibrosis of interstitial tissue (score) [1, 7]: 0.5
- Tubulointerstitial lesion: thickness of basement membrane (score) [1, 7]: 0.5 (3×) and 0
- Tubulointerstitial lesion: total score [1, 8]: 1.5 (2×) and 0.5 and 2
- Asc-1 positive cells in the glomeruli (in words) ([1]; versus control group): only a small number
- Change in HAT expressed on large-cell fraction of THP-1 (peak value by FACScan), 4F2hc (4F2hc [3]; THP-1 + LPS 80 μg/ml, fetal bovine serum, test compound 1000 nM, solvent control 12): 11
- amount of 4F2hc in the heavy chain of HAT (in words) (4F2hc [3]; THP-1 + LPS, summary of Table 3): did not make any change
- known action on renal tubulointerstitial lesions [2]: selectively inhibit the renal tubulointerstitial lesions
- Change in HAT expressed on large-monocyte fraction of human PBMC (peak value by FACScan), 4F2hc (4F2hc [4]; human PBMC + LPS 80 μg/ml, 6-day culture, test compound 100 nM, solvent control 23): 20
- amount of 4F2hc in the heavy chain of HAT (in words) (4F2hc [4]; human PBMC + LPS, summary of Table 2): did not show any effects

Structure (SMILES): C[C@@H](OC[C@@]1(Oc2ccc(F)cc2)CCC(=O)O1)c1ccc2ccccc2c1 [(3-2)]
- Glomerular lesion: number of lesioned glomeruli per 50 glomeruli, expansion of tubular pole associated with swollen Bowman's capsule epithelial cells [1, 5]: 6 ± 3 per 50 glomeruli
- Glomerular lesion: number of lesioned glomeruli per 50 glomeruli, hypertrophy of Bowman's capsule basal membrane [1, 5]: 6 ± 1 per 50 glomeruli
- Number of Asc-1+ cells per 50 glomeruli [1, 5]: 11.06 ± 3.51 per 50 glomeruli
- Tubulointerstitial lesion: atrophy of tubules associated with dilatation of tubules (score) [1, 5]: 2.6 ± 0.9
- Tubulointerstitial lesion: fibrosis of interstitial tissue (score) [1, 5]: 2.2 ± 0.4
- Tubulointerstitial lesion: thickness of basement membrane (score) [1, 5]: 2.2 ± 0.4
- Tubulointerstitial lesion: total score [1, 5]: 7.0 ± 1.2
- Glomerular lesion: number of lesioned glomeruli per 50 glomeruli, expansion of tubular pole associated with swollen Bowman's capsule epithelial cells [1, 6]: 10 per 50 glomeruli and 6 per 50 glomeruli (2×) and 5 per 50 glomeruli and 3 per 50 glomeruli
- Glomerular lesion: number of lesioned glomeruli per 50 glomeruli, hypertrophy of Bowman's capsule basal membrane [1, 6]: 6 per 50 glomeruli and 5 per 50 glomeruli (2×) and 8 per 50 glomeruli and 7 per 50 glomeruli
- Number of Asc-1+ cells per 50 glomeruli [1, 6]: 9.48 per 50 glomeruli and 9.55 per 50 glomeruli and 14.91 per 50 glomeruli and 6.84 per 50 glomeruli and 14.52 per 50 glomeruli
- Improvement of glomerular lesion ([1]; individual animal): Yes
- Improvement of tubulointerstitial lesion ([1]; individual animal): No
- Tubulointerstitial lesion: atrophy of tubules associated with dilatation of tubules (score) [1, 7]: 3 (4×) and 1
- Tubulointerstitial lesion: fibrosis of interstitial tissue (score) [1, 7]: 2 (4×) and 3
- Tubulointerstitial lesion: thickness of basement membrane (score) [1, 7]: 2 (4×) and 3
- Tubulointerstitial lesion: total score [1, 8]: 7 (2×) and 8 (2×) and 5
- known action on glomerular lesions [2]: selectively inhibit the glomerular lesions
